Test results reported in the supplement of paper PMC10307832.

Assays:
Test in all cases: relative viability (nuclei count vs DMSO), 5 days (fraction); higher = more cells survive
AZ3146 + Pictilisib = compound: CN1CCC(CC1)OC2=CC(=C(C=C2)NC3=NC=C4C(=N3)N(C(=O)N4C)C5CCCC5)OC [AZ3146] + CS(=O)(=O)N1CCN(Cc2cc3nc(-c4cccc5[nH]ncc45)nc(N4CCOCC4)c3s2)CC1 [Pictilisib] (partner 1 µM)
Summary of the method: (§1)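 Lung cancer cell lines, seeded in 1536-well plates, were treated the following day by pin tool with a single drug or with five library-drug doses (not always all listed) in √10 steps on top of a fixed anchor-drug dose. Cells were fixed and nuclei stained in one step after 5 days, and nuclei were counted. Relative viability is the nuclei count for treated wells divided by that for vehicle wells, reported as medians of duplicate plates.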

GSK-J4 + Trametinib = compound: CCOC(=O)CCNc1cc(N2CCc3ccccc3CC2)nc(-c2ccccn2)n1 [GSK-J4] + CC(=O)Nc1cccc(-n2c(=O)n(C3CC3)c(=O)c3c(Nc4ccc(I)cc4F)n(C)c(=O)c(C)c32)c1 [Trametinib] (partner 0.02 µM)
Summary of the method: as §1

AZ3146 + Olaparib = compound: CN1CCC(CC1)OC2=CC(=C(C=C2)NC3=NC=C4C(=N3)N(C(=O)N4C)C5CCCC5)OC [AZ3146] + O=C(c1cc(Cc2n[nH]c(=O)c3ccccc23)ccc1F)N1CCN(C(=O)C2CC2)CC1 [Olaparib] (partner 8 µM)
Summary of the method: as §1

GSK-J4 + Luminespib = compound: CCOC(=O)CCNc1cc(N2CCc3ccccc3CC2)nc(-c2ccccn2)n1 [GSK-J4] + CCNC(=O)c1noc(-c2cc(C(C)C)c(O)cc2O)c1-c1ccc(CN2CCOCC2)cc1 [Luminespib] (partner 0.01 µM)
Summary of the method: as §1

Cell Line	relative viability (AZ3146 + Pictilisib; first compound 0.253 µM)	relative viability (AZ3146 + Pictilisib; first compound 0.8 µM)	relative viability (AZ3146 + Pictilisib; first compound 2.53 µM)	relative viability (AZ3146 + Pictilisib; first compound 8 µM)	relative viability (GSK-J4 + Trametinib; first compound 0.5 µM)	relative viability (GSK-J4 + Trametinib; first compound 1.581 µM)	relative viability (GSK-J4 + Trametinib; first compound 5 µM)	relative viability (GSK-J4 + Trametinib; first compound 15.81 µM)	relative viability (GSK-J4 + Trametinib; first compound 50 µM)	relative viability (AZ3146 + Olaparib; first compound 0.253 µM)	relative viability (AZ3146 + Olaparib; first compound 0.8 µM)	relative viability (AZ3146 + Olaparib; first compound 2.53 µM)	relative viability (AZ3146 + Olaparib; first compound 8 µM)	relative viability (AZ3146 + Pictilisib; first compound 0.08 µM)	relative viability (AZ3146 + Olaparib; first compound 0.08 µM)	relative viability (GSK-J4 + Luminespib; first compound 0.5 µM)	relative viability (GSK-J4 + Luminespib; first compound 1.581 µM)	relative viability (GSK-J4 + Luminespib; first compound 5 µM)	relative viability (GSK-J4 + Luminespib; first compound 15.81 µM)	relative viability (GSK-J4 + Luminespib; first compound 50 µM)
HCC-78	0.23	0.225	0.223	0.211	0.765	0.706	1.15	0.559	1.02	0.863	0.765	0.767	0.798	–	–	–	–	–	–	–
HCC-366	0.133	0.138	0.146	0.191	0.354	0.319	–	0.234	0.21	0.388	0.401	0.399	0.302	0.233	0.304	–	–	–	–	–
HCC-827	0.971	0.987	1.2	0.928	0.566	0.58	0.72	0.448	0.513	0.612	0.625	0.568	0.785	0.965	0.624	0.566	0.629	0.832	0.405	0.526
HOP-62	0.719	0.627	0.895	0.548	0.39	0.309	0.334	0.337	0.301	0.345	0.44	0.361	0.359	0.561	0.48	0.877	0.937	0.917	0.794	0.396
IA-LM	0.425	0.354	0.381	0.225	–	–	–	–	–	0.808	0.91	0.919	0.486	0.306	0.775	–	–	–	–	–
LC-2-ad	0.483	0.425	0.579	0.41	0.847	0.76	0.835	0.908	0.886	0.724	0.697	0.733	0.658	0.398	0.697	0.851	0.889	0.701	0.886	0.54
LCLC-97TM1	–	0.18	0.227	0.181	0.182	0.155	0.168	0.128	0.156	0.535	0.458	0.447	0.345	–	0.52	0.725	0.722	0.773	0.415	0.256
LCLC-103H	0.672	0.557	0.492	0.555	0.68	0.64	0.674	0.622	0.626	0.765	0.778	0.749	0.745	0.548	0.755	0.96	0.917	1.01	0.882	0.486
LK-2	–	–	0.668	0.668	0.655	0.727	1.27	0.664	1.04	0.586	0.559	0.672	0.831	0.49	0.61	0.191	–	0.151	0.193	0.159
LOU-NH91	0.542	0.459	0.494	0.474	0.816	0.427	0.638	0.718	0.803	0.91	0.972	0.904	0.925	0.475	0.922	0.347	0.329	0.254	0.267	0.246
LU99A	0.351	0.32	0.376	0.351	0.551	0.485	–	0.441	0.35	0.26	0.24	0.271	0.257	0.318	–	0.201	0.267	–	0.244	0.223
LXF-289	0.776	0.779	0.824	0.642	0.696	0.592	0.688	0.654	0.584	0.989	1.07	1.18	1.06	0.693	1.13	0.648	0.639	0.785	0.627	0.507
NCI-H23	0.568	0.483	0.494	0.451	0.354	0.367	0.393	0.285	0.34	0.289	0.389	0.356	0.338	0.453	0.291	0.212	0.197	0.215	0.209	0.201
NCI-H522	–	–	–	–	0.817	0.6	–	0.75	0.7	0.685	0.515	0.695	0.596	–	0.68	1.22	0.944	1.2	0.612	0.587
NCI-H1299	0.976	0.677	0.734	0.264	–	–	–	–	–	0.941	0.944	0.938	0.789	0.786	0.932	–	–	–	–	–
NCI-H1563	0.641	0.729	0.685	0.604	–	–	–	–	–	–	–	–	–	0.636	–	0.513	0.484	0.477	0.502	0.526
NCI-H1623	–	–	–	–	–	–	–	–	–	–	–	–	–	–	–	0.556	0.427	0.677	0.432	0.283
NCI-H1648	–	–	–	–	0.467	–	0.643	–	0.429	–	0.987	1.18	0.802	–	–	–	–	–	–	–
NCI-H1703	0.258	0.231	0.228	0.234	–	–	–	–	–	0.383	0.517	0.346	0.402	0.254	0.424	–	–	–	–	–
NCI-H2342	–	–	–	–	0.819	0.752	0.866	0.917	0.946	0.474	0.529	0.487	0.695	–	0.464	0.736	0.783	0.865	0.951	0.858
SW 900	–	–	–	–	0.548	0.691	0.877	0.785	0.83	–	0.785	0.846	0.754	–	0.706	0.195	0.156	0.155	0.177	0.154
